Results taken from patent publication US10173968B2, “Bishydrazone-based antifungal agents” (University of Kentucky Research Foundation, priority 2016, dated 2019).
Read-outs that look alike come from different tables or passages of the source.

Experiments:
[1] = system: MRSA (strain C); assay type: cell-based, Staphylococcus aureus
Protocol: (§1) The bacteria were grown in MH broth at 37° C. for these experiments. […] The resulting cultures were diluted 1:1000 and grown until the culture reached ˜300,000 cfu/mL. That culture was then further diluted 1:1000 and used to determine the next round of MIC values.

[2] = system: C. albicans ATCC 90819; experiment: Antifungal MIC, CLSI M27-A3 microbroth dilution; assay type: cell-based, Candida albicans; settings: Candida albicans, ATCC90819; C. albicans ATCC 90819, resistant to FLC, ITC, and VOR; converted from μg/mL; read-out: MIC
Protocol: (§2) In vitro MIC testing was performed according to the CLSI M27-A3 standard microbroth dilution methodology for the susceptibility testing of yeasts with minor modifications.

[3] = system: C. albicans ATCC 2310; experiment: Antifungal MIC, CLSI M27-A3 microbroth dilution; assay type: cell-based, Candida albicans; settings: Candida albicans, ATCC2310; C. albicans ATCC 2310, susceptible to FLC, ITC, and VOR; converted from μg/mL; read-out: MIC
Protocol: as §2

[4] = system: C. albicans ATCC 1003; experiment: Antifungal MIC, CLSI M27-A3 microbroth dilution; assay type: cell-based, Candida albicans; settings: Candida albicans, ATCC1003; C. albicans ATCC 1003; converted from μg/mL; read-out: MIC
Protocol: as §2

[5] = system: C. albicans ATCC 10231; experiment: Antifungal MIC, CLSI M27-A3 microbroth dilution; assay type: cell-based, Candida albicans; settings: Candida albicans, ATCC10231, C. albicans ATCC 10231, resistant to FLC, ITC, and VOR, read-out: MIC
Protocol: as §2

[6] = system: C. albicans ATCC 2876; experiment: Antifungal MIC, CLSI M27-A3 microbroth dilution; assay type: cell-based, Candida albicans; settings: Candida albicans, ATCC2876; C. albicans ATCC 2876, susceptible to FLC, ITC, and VOR; converted from μg/mL; read-out: MIC
Protocol: as §2

[7] = system: C. albicans ATCC 64124; experiment: Antifungal MIC, CLSI M27-A3 microbroth dilution; assay type: cell-based, Candida albicans; settings: Candida albicans, ATCC64124; C. albicans ATCC 64124, resistant to FLC, ITC, and VOR; converted from μg/mL; read-out: MIC
Protocol: as §2

[8] = system: C. albicans ATCC 1237; experiment: Antifungal MIC, CLSI M27-A3 microbroth dilution; assay type: cell-based, Candida albicans; settings: Candida albicans, ATCC1237, C. albicans ATCC 1237, resistant to FLC, ITC, and VOR; converted from μg/mL; read-out: MIC
Protocol: as §2

[9] = system: L. monocytogenes ATCC 19115 (strain B); assay type: cell-based, Listeria monocytogenes
Protocol: as §1

[10] = system: C. albicans ATCC 10231; experiment: Intracellular ROS production, DCFH-DA fluorescence assay; assay type: cell-based, Candida albicans; settings: at 1× and 2× MIC values, 1 h at 35° C.
Source text: We used the 2′,7′-dichlorodihydrofluorescein diacetate (DCFH-DA) dye as a probe to measure the production of ROS in yeast cells upon treatment with our compounds. DCFH-DA can easily cross the cell membranes and be hydrolyzed by cellular esterases to the non-fluorescent 2′,7′-dichlorodihydrofluorescein (DCFH), which can further be oxidized to the highly fluorescent 2′,7′-dichlorofluorescein (DCF) by the intracellular ROS. Five mL of RPMI 1640 medium were inoculated using a single colony of C. albicans ATCC 10231 (strain A) in a Falcon tube and grown overnight at 35° C. at 200 rpm. The overnight culture was diluted by adding 200 μL of yeast cells to 800 μL of the same medium. […] H2O2 at 1 mM was also used as a positive control. Cells were centrifuged and washed twice with PBS buffer (pH 7.2). Cells were resuspended in the same buffer and incubated with DCFH-DA (20 μg/mL) for 30 min in the dark. Afterwards, cells were centrifuged and washed with PBS buffer to remove excess DCFH-DA. Glass slides with 10-15 μL of each mixture were prepared and observed in bright field and fluorescence modes (FITC filter set, excitation and emission wavelengths of 488 and 512 nm, respectively) using a Zeiss Axovert 200M fluorescence microscope (FIG. 3).

[11] = system: P. aeruginosa ATCC 27853 (strain I); assay type: cell-based
Protocol: as §1

[12] = system: B. subtilis 168; experiment: Antibacterial MIC, double-dilution method; assay type: cell-based; settings: Bacillus subtilis, strain A, Gram-positive
Method in brief: (§3)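 Step one: single-point test of each compound at 500 μM. Step two: MIC determination across doubling dilutions.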

[13] = system: E. coli MC1061; experiment: Antibacterial MIC, double-dilution method; assay type: cell-based; settings: Escherichia coli, strain G, Gram-negative, read-out: MIC
Method in brief: as §3

[14] = system: K. pneumoniae ATCC 27736; experiment: Antibacterial MIC, double-dilution method; assay type: cell-based; settings: Klebsiella pneumoniae, ATCC27736, strain H, Gram-negative, read-out: MIC
Method in brief: as §3

[15] = system: VRE; experiment: Antibacterial MIC, double-dilution method; assay type: cell-based; settings: Enterococcus, strain D, Gram-positive, converted from μM, read-out: MIC
Method in brief: as §3

[16] = system: M. smegmatis MC2-155; experiment: Antibacterial MIC, double-dilution method; assay type: cell-based; settings: Mycolicibacterium smegmatis, MC2155, strain K, mycobacterial; converted from μM; read-out: MIC
Method in brief: as §3

[17] = system: L. monocytogenes ATCC 19115; experiment: Antibacterial MIC, double-dilution method; assay type: cell-based; settings: Listeria monocytogenes, ATCC19115, strain B, Gram-positive, read-out: MIC
Method in brief: as §3

[18] = system: P. aeruginosa ATCC 27853; experiment: Antibacterial MIC, double-dilution method; assay type: cell-based; settings: Pseudomonas aeruginosa, ATCC27853, strain I, Gram-negative, read-out: MIC
Method in brief: as §3

[19] = system: S. enterica ATCC 14028; experiment: Antibacterial MIC, double-dilution method; assay type: cell-based; settings: Salmonella enterica, ATCC14028, strain J, Gram-negative, read-out: MIC
Method in brief: as §3

[20] = system: MRSA; experiment: Antibacterial MIC, double-dilution method; assay type: cell-based; settings: Staphylococcus aureus, strain C, Gram-positive, read-out: MIC
Method in brief: as §3

[21] = system: VRE (strain D); assay type: cell-based, enterococcus
Protocol: as §1

[22] = system: C. albicans ATCC 10231; assay type: cell-based, Candida albicans
[23] = system: C. albicans strains (panel of seven); experiment: Antifungal MIC, summary over the panel; assay type: cell-based, Candida albicans
Protocol: In vitro MIC testing was performed according to the CLSI M27-A3 standard microbroth dilution methodology for the susceptibility testing of yeasts with minor modifications. […] MIC values were read visually for all tested compounds, and the endpoint was determined as the minimum concentration of compound that yielded complete inhibition relative to growth control.

[24] = after 15 serial passages at sub-inhibitory concentrations

Question: For `C/C(=N\NC(=N)N)c1ccc2c(c1)Cc1cc(/C(C)=N/NC(=N)N)ccc1-2.Cl.Cl` [Compound 4F, (2E,2′E)-2,2′-((9H-Fluorene-2,7-diyl)bis(ethan-1-yl-1-ylidene))bis(hydrazine-1-carboximidamide) dihydrochloride], which “increase in relative MIC values” [1, 24] is on record?
Answer: one-fold

Question: And the “development of resistance (passages after which resistance developed)” value (shortened to “development of resistance”) ([1]; up to 15 passages)?
Answer: did not develop resistance

Question: And the MIC [2]?
Answer: 4.6 µM

Question: And the MIC [3]?
Answer: 2.3 µM

Question: What about the MIC [4] of the same compound?
Answer: 2.3 µM

Question: What about the MIC ([5]; converted from μg/mL) of the same compound?
Answer: 2.3 to 4.6 µM

Question: What about the MIC [5] of the same compound?
Answer: 1 to 2 µg/mL

Question: What about the MIC [6] of the same compound?
Answer: 2.3 µM

Question: And the MIC [7]?
Answer: 2.3 µM

Question: What about the MIC [8] of the same compound?
Answer: 4.6 µM

Question: What about the “increase in relative MIC values” [9, 24] of the same compound?
Answer: one-fold

Question: And the “development of resistance” value ([9]; up to 15 passages)?
Answer: did not develop resistance

Question: And the “intracellular ROS production” value [10]?
Answer: significantly increased intracellular ROS production

Question: What about the “increase in relative MIC values” [11, 24] of the same compound?
Answer: one-fold

Question: And the “development of resistance” value ([11]; up to 15 passages)?
Answer: did not develop resistance

Question: And the MIC ([12]; converted from μM)?
Answer: 3.4 µg/mL

Question: And the MIC ([12]; range 0.5 to 500 μM)?
Answer: 7.8 µM

Question: And the MIC ([13]; converted from μM)?
Answer: 218 µg/mL

Question: What about the MIC ([13]; range 0.5 to 500 μM) of the same compound?
Answer: 500 µM

Question: What about the MIC ([14]; converted from μM) of the same compound?
Answer: 13.6 to 27.2 µg/mL

Question: And the MIC ([14]; range 0.5 to 500 μM)?
Answer: 31.3 to 62.5 µM

Question: What about the MIC [15] of the same compound?
Answer: 0.4 µg/mL

Question: What about the MIC [16] of the same compound?
Answer: 0.4 µg/mL

Question: And the MIC ([17]; converted from μM)?
Answer: < 0.2 µg/mL

Question: What about the MIC ([17]; range 0.5 to 500 μM) of the same compound?
Answer: < 0.5 µM

Question: What about the MIC ([18]; converted from μM) of the same compound?
Answer: 0.4 to 0.9 µg/mL

Question: What about the MIC ([18]; range 0.5 to 500 μM) of the same compound?
Answer: 1 to 2 µM

Question: And the MIC ([19]; converted from μM)?
Answer: 1.7 µg/mL

Question: What about the MIC ([19]; range 0.5 to 500 μM) of the same compound?
Answer: 3.9 µM

Question: What about the MIC ([20]; converted from μM) of the same compound?
Answer: 0.4 to 0.9 µg/mL

Question: And the MIC ([20]; range 0.5 to 500 μM)?
Answer: 1 to 2 µM

Question: What about the “increase in relative MIC values” [21, 24] of the same compound?
Answer: one-fold

Question: And the “development of resistance” value ([21]; up to 15 passages)?
Answer: did not develop resistance

Question: What about the “shift in relative MIC values” ([22]; after 13 passages, sub-MIC drug concentrations) of the same compound?
Answer: 2 fold

Question: What about the “development of drug resistance” value ([22]; repeated treatments with sub-MIC drug concentrations) of the same compound?
Answer: unable to develop drug resistance

Question: What about the MIC ([23]; Candida albicans, all, most or majority of the fungal strains, read-out: MIC, span over C. albicans strains) of the same compound?
Answer: 1 to 3.9 µg/mL

Question: And the “antifungal activity in words” value ([23]; against all fungal strains tested)?
Answer: excellent antifungal activities
